According to patent US20120214847A1, “2-[1-PHENYL-5-HYDROXY-4a-SUBSTITUTED-HEXAHYDROCYCLOPENTA[F]INDAZOL-5-YL]ETHYL PHENYL DERIVATIVES AS GLUCOCORTICOID RECEPTOR LIGANDS” (Merck Sharp & Dohme Corp., priority 2009, published 2012):

Biological target: T1, human GR (Homo sapiens, UniProt P04150)
T1 construct: naturally expresses the human GR; endogenous in cells
T1 sequence (P04150 1-777): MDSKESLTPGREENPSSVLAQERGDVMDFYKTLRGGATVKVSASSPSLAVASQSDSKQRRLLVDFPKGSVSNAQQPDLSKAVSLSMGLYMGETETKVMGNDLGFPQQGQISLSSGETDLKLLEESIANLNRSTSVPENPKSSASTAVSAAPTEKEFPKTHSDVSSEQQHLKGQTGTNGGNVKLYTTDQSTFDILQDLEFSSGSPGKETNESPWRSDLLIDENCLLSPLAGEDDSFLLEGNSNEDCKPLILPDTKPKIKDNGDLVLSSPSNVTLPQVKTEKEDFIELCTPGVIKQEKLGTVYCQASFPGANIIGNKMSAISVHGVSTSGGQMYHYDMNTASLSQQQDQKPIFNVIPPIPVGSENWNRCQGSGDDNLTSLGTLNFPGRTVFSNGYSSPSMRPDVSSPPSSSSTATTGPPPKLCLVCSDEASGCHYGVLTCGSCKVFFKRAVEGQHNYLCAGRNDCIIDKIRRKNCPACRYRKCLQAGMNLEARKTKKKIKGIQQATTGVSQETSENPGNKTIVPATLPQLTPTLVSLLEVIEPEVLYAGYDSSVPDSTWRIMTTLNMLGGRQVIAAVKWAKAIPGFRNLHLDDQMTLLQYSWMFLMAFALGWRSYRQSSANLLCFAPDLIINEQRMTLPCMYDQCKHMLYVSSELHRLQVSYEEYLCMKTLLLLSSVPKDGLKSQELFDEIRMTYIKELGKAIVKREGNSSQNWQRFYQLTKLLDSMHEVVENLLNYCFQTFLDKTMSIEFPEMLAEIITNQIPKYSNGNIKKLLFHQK
Assay: Trans-activation modulation of glucocorticoid receptor (GRAMMER), MMTV-LUC reporter in A549 cells
Format: cell-based
Details: for Emax: A549, A549 cells, read-out: Transactivation A549 Cells Grammer Emax (%); for Emax / Transactivation A549 Cells Grammer Emax (%): Emax relative to the activity obtained with 300 nM dexamethasone; for EC50 / Transactivation A549 Cells Grammer Emax (%): A549 cells; for EC50: IP = inflection point, read-out: Transactivation A549 Cells Grammer IP

| Structure (SMILES) | Emax [%] | EC50 [µM] | Transactivation A549 Cells Grammer Emax (%) |
| --- | --- | --- | --- |
| CC[C@]12Cc3cnn(-c4ccc(F)cc4)c3C=C1CC[C@@]2(O)CCc1ncccc1S(C)(=O)=O [Example 80, (4aS,5R)-4a-Ethyl-1-(4-fluorophenyl)-5-{2-[3-(methylsulfonyl)pyridin-2-yl]ethyl}-1,4,4a,5,6,7-hexahydrocyclopenta[f]indazol-5-ol] | 38 | 0.056 | – |
| OCc1ccccc1CC[C@]1(O)CCC2=Cc3c(cnn3-c3ccc(F)cc3)C[C@@]21C1CC1 [Example 2, (4aR,5R)-4a-Cyclopropyl-1-(4-fluorophenyl)-5-{2-[2-(hydroxymethyl)phenyl]ethyl}-1,4,4a,5,6,7-hexahydrocyclopenta[f]indazol-5-ol] | 24 | 0.022 | – |
| NC(=O)C(O)c1ccccc1CC[C@]1(O)CCC2=Cc3c(cnn3-c3ccc(F)cc3)C[C@@]21C1CC1 (single isomer, unassigned) [Example 3a] | – | 0.125 | 7 |
| CC[C@]12Cc3cnn(-c4ccccc4)c3C=C1CC[C@@]2(O)CC(O)c1ccccn1 (single isomer, unassigned) [Example 82a] | – | 0.285 | 20 |
| CC[C@]12Cc3cnn(-c4ccccc4)c3C=C1CC[C@@]2(O)CCc1ncccc1S(=O)(=O)C(C)C [Example 81, (4aS,5R)-4a-Ethyl-5-{2-[3-(iso-propylsulfonyl)pyridin-2-yl]ethyl}-1-phenyl-1,4,4a,5,6,7-hexahydrocyclopenta[f]indazol-5-ol] | 36 | 0.096 | – |
| OC(C[C@]1(O)CCC2=Cc3c(cnn3-c3ccc(F)cc3)C[C@@]21C1CC1)c1ccc(F)cn1 (single isomer, unassigned) [Example 79b] | – | 0.046 | 8 |
| CC[C@]12Cc3cnn(-c4ccccc4)c3C=C1CC[C@@]2(O)CC(O)c1ccccn1 (single isomer, unassigned) [Example 82b] | – | 0.174 | 10 |
